Values of other authors as cited in US8048927B2 (Besins Healthcare Luxembourg, priority 2004, dated 2011).

Details: in vivo; cited from earlier work

SMILES: CCC(=C(c1ccc(O)cc1)c1ccc(OCCN(C)C)cc1)c1ccccc1 [4-hydroxy tamoxifen, 1-[4-(2-N-dimethylaminoethoxy)phenyl]-1-(4-hydroxyphenyl)-2-phenylbut-1-ene]
- breast tissue concentration by site of application: concentrated at higher amounts in breast tissue when the gel was applied directly to the breasts
